Measurements reported in patent US10309966B2, “Personalized therapy of inflammation-associated cancer using methods of assessing the susceptibility of a subject to the treatment with EGFR inhibitors/antagonists” (Medizinische Universität Wien, priority 2014, dated 2019).

How the values were obtained:
[1] = system: IL-6 secretion by isolated Kupffer cells; assay: IL-1β-induced IL-6 production/secretion by isolated Kupffer cells (ELISA, qRT-PCR); format: cell-based, mouse; conditions: for IL-1β-induced release of IL-6: EGFR-expressing Kupffer cells, 24 hours after IL-1β, inhibitor pre-incubation, FIG. 10C
Procedure: (§1) ELISA for IL-6, IL17A, IL22, IL23 (eBioscience), amphiregulin (R&D Systems), CCL2, IL-1β and IL-1α (BD Biosciences-Pharmigen) were performed following the manufacturer's instructions. MTT assay (EZ4U, Biomedica) was performed to quantify the number of viable Kupffer cells in the wells. The cytokine value was normalized to the number of viable Kupffer cells.
(§2) Hepatocytes were plated onto collagen pre-coated cell culture dishes and cultured in HepatoZyme-SFM (Gibco) supplemented with 2 mM glutamine and 1% penicillin-streptomycin (P/S). Hepatocytes were either treated with the indicated amounts of DEN for 24 hours or with 10 ng/ml TNFα (eBioscience) in the presence of cycloheximide (100 μg/ml, Sigma) for 12 hours to study the hepatoprotective role of EGFR. […] Since the number of Kupffer cells which can be recovered from one mouse is very low, it was technically impossible to perform Western Blot analysis for all indicated signaling molecules on one single batch of Kupffer cells. Usually Kupffer cells from 2 livers of the same genotype were pooled together to obtain around 20-30 μg of protein lysate.

[2] = system: IL-6 release by cultured Kupffer cells; assay: EGF-induced IL-6 release by cultured Kupffer cells (ELISA); format: cell-based, mouse
Procedure: as §1, with “Protocols for ELISA have been previously described (Natarajan, A. et al., 2007; Lichtenberger, B. M. et al., 2010; Sibilia, M. et al., 2000; Drobits, B. et al., 2012). ELISA” for “ELISA”
Hepatocytes and Kupffer cells were isolated after liver perfusion according to previously published protocols (Smedsrod, B. et al., 1985) and either directly used for further analysis or cultured as follows. Hepatocytes were plated onto collagen pre-coated cell culture dishes and cultured in HepatoZyme-SFM (Gibco) supplemented with 2 mM glutamine and 1% penicillin-streptomycin (P/S). Hepatocytes were either treated with the indicated amounts of DEN for 24 hours or with 10 ng/ml TNFα (eBioscience) in the presence of cycloheximide (100 μg/ml, Sigma) for 12 hours to study the hepatoprotective role of EGFR. Kupffer cells were isolated and plated in RPMI 1640 with 10% FCS, 2 mM glutamine, 1% P/S for at least 24 hours followed by overnight starvation (in 0.5% FCS containing medium for cytokine induction; serum-free medium for signaling experiments). Kupffer cells were stimulated with IL-1β (10 ng/ml, eBioscience), EGF (10 ng/ml, Lonza), polylC (20 μg/ml, GE Healthcare), imiquimod (12 μg/ml, Invivogen) and LPS (10 ng/ml, Invivogen) for the time period indicated. […] Since the number of Kupffer cells which can be recovered from one mouse is very low, it was technically impossible to perform Western Blot analysis for all indicated signaling molecules on one single batch of Kupffer cells. Usually Kupffer cells from 2 livers of the same genotype were pooled together to obtain around 20-30 μg of protein lysate.

[3] = system: AR release by cultured Kupffer cells; assay: AR (amphiregulin) release into supernatant of IL-1β stimulated Kupffer cells (ELISA); format: cell-based, mouse; conditions: 24 hours after IL-1β stimulation in presence of inhibitor; FIG. 10B
Procedure: as §1, with “Protocols for ELISA have been previously described (Natarajan, A. et al., 2007; Lichtenberger, B. M. et al., 2010; Sibilia, M. et al., 2000; Drobits, B. et al., 2012). ELISA” for “ELISA”
Hepatocytes and Kupffer cells were isolated after liver perfusion according to previously published protocols (Smedsrod, B. et al., 1985) and either directly used for further analysis or cultured as follows. Hepatocytes were plated onto collagen pre-coated cell culture dishes and cultured in HepatoZyme-SFM (Gibco) supplemented with 2 mM glutamine and 1% penicillin-streptomycin (P/S). Hepatocytes were either treated with the indicated amounts of DEN for 24 hours or with 10 ng/ml TNFα (eBioscience) in the presence of cycloheximide (100 μg/ml, Sigma) for 12 hours to study the hepatoprotective role of EGFR. Kupffer cells were isolated and plated in RPMI 1640 with 10% FCS, 2 mM glutamine, 1% P/S for at least 24 hours followed by overnight starvation (in 0.5% FCS containing medium for cytokine induction; serum-free medium for signaling experiments). […]

[4] = system: patients with advanced non-small-cell lung cancer; conditions: meta-analysis; cited from earlier work
human HCC cells = conditions: xenograft models with human HCC cells; W. Sieghart, unpublished results; cited from earlier work
[5] = system: advanced stage HCC patients; conditions: cited from earlier work
[6] = system: ulcerative colitis patients; conditions: EGF enemas; cited from earlier work
EGFR = EGFR phosphorylation in isolated Kupffer cells (Western blot); format: cell-based, mouse; conditions: EGFR expressing Kupffer cells; IL-1β as stimulus; FIGS. 10E, 10F
Procedure: as §2

[7] = system: DSS colitis in Adam17^ex/ex mice; conditions: exogenous supplementation; cited from earlier work

## C[S+]([O-])c1ccc(-c2nc(-c3ccncc3)c(-c3ccc(F)cc3)[nH]2)cc1 (centres unmarked) [SB203580, reference compound]
[1]
  IL-1β-induced release of IL-6: inhibited
[2]; EGFR-positive liver macrophages, 24 hours after EGF, inhibitor pre-incubation, FIG. 10D
  EGF-induced IL-6 production: inhibited

## CC(C)C[C@H](CC(=O)NO)C(=O)N[C@@H](Cc1ccc2ccccc2c1)C(=O)N[C@@H](C)C(=O)NCCN [TAPI-1, reference compound]
[1]
  IL-1β-induced release of IL-6: blocked
[3]
  AR release into the culture medium: did not occur

## C#Cc1cccc(Nc2ncnc3cc(OCCOC)c(OCCOC)cc23)c1 [erlotinib]
[4]
  drug toxicity (diarrhea): increased drug toxicity in the form of diarrhea
Human HCC cells
  reduction of HCC burden: ineffective
  synergistic effect of combination therapy with sorafenib: did not show any synergistic effect
[5]; HCC, phase 2
  effects in phase 2 trials (disease stabilization at 6 months): moderate effects
[5]; SEARCH trial, phase III, advanced stage HCC-patients
  improvement in survival through addition of erlotinib: unable to show any improvement in survival

## COc1cc2ncnc(Nc3ccc(F)c(Cl)c3)c2cc1OCCCN1CCOCC1 [gefitinib]
[4]
  drug toxicity (diarrhea): increased drug toxicity in the form of diarrhea
[5]; advanced stage HCC
  clinical results in advanced stage HCC patients: disappointing clinical results

## EGF: EGFR ligand epidermal growth factor (NSDSECPLSHDGYCLHDGVCMYIEALDKYACNCVVGYIGERCQYRDLKWWELR; UniProt P01133 971-1023, looked up)
[6]
  disease remission: induced disease remission
[2]; EGF as stimulus, FIG. 10D
  restoration of IL-6 production in MyD88−/− Kupffer cells: fully restore
[2]; EGFR expressing Kupffer cells, EGF as stimulus, FIGS. 10C, 10D
  induction of IL-6 release: sufficient and equally as potent as IL-1β

## IL-1β: cytokine used to stimulate Kupffer cells
EGFR
  induction of EGFR phosphorylation: able to induce
[1]; Kupffer cells expressing EGFR, IL-1β as stimulus, FIGS. 8E, 8F
  induction of IL-6 transcripts and IL-6 protein in the culture medium: induced

## TGFα: EGFR ligand transforming growth factor alpha, exogenous supplementation
[7]
  rescue of colitis symptoms: partial rescue
